Test results taken from patent US20060069132A1, “Azolecarboxamide herbicides” (priority 2004, published 2006).

How the values were obtained:
pigweed = assay: Test B pre-/postemergence herbicide test; format: in vivo, Amaranthus retroflexus; conditions: for Pigweed plant response rating: postemergence
Procedure, shortened: (§1)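 Formulation: non-phytotoxic solvent mix with surfactant. Timing: preemergence on seed and postemergence on 2–18 cm plants, applied concurrently. Readout after 13–15 d greenhouse: visual 0–100 control rating against controls.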

velvetleaf [1] = assay: Test B pre-/postemergence herbicide test; format: in vivo, Abutilon theophrasti; conditions: 100 is complete control
Procedure, shortened: as §1

wheat = assay: Test B postemergence herbicide test; format: in vivo, Triticum aestivum; set-up: key to Wheat plant response rating: 0 = no effect, 100 = complete control; conditions: postemergence
Procedure, shortened: (§2)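 Scale 0–100: zero equals no visible effect, 100 complete control, judged by eye relative to controls. Timing: 13 to 15 days in greenhouse post-treatment. Growth stage at spraying: two leaves (paddy) or one to four leaves, 2–18 cm (postemergence).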

lambsquarters = assay: Test B pre-/postemergence herbicide test; format: in vivo, Chenopodium album; conditions: for Lambsquarters plant response rating: postemergence
Procedure, shortened: as §1

velvetleaf [2] = assay: Test A pre-/postemergence herbicide test; format: in vivo, Abutilon theophrasti
Procedure, shortened: (§3)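 Seeds sown in sandy loam received a preemergence directed soil spray of compound in non-phytotoxic solvent with surfactant; postemergence plants (2–10 cm, one- to two-leaf stage) were sprayed to runoff at the same time. After ~10 days in greenhouse, injury was rated visually versus untreated controls (0 = no effect, 100 = complete control).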

ducksalad = assay: Test B flooded paddy test; format: in vivo, Heteranthera limosa; conditions: 1000 g ai/ha, scale 0 to 100 (0 no effect, 100 complete control)
Procedure, shortened: as §2

barnyardgrass [3] = assay: Test B pre-/postemergence herbicide test; format: in vivo, Echinochloa crus-galli; conditions: for Barnyardgrass plant response rating: postemergence
Procedure, shortened: as §1

morningglory [4] = assay: Test A pre-/postemergence herbicide test; format: in vivo, Ipomoea spp.
Procedure, shortened: as §3

wild oat = assay: Test B postemergence herbicide test; format: in vivo, Avena fatua; conditions: postemergence
Procedure, shortened: as §2

giant foxtail [5] = assay: Test A pre-/postemergence herbicide test; format: in vivo, Setaria faberi
Procedure, shortened: as §3

barnyardgrass [6] = assay: Test B flooded paddy test; format: in vivo, Echinochloa crus-galli; conditions: 1000 g ai/ha, scale 0 to 100 (0 no effect, 100 complete control)
Procedure, shortened: as §2

corn = assay: Test B pre-/postemergence herbicide test; format: in vivo, Zea mays; conditions: for Corn plant response rating: postemergence
Procedure, shortened: as §1

Surinam grass = assay: Test B pre-/postemergence herbicide test; format: in vivo, Urochloa decumbens; conditions: for Surinam Grass plant response rating: postemergence
Procedure, shortened: as §1

rice = assay: Test B flooded paddy test; format: in vivo, Oryza sativa; conditions: 1000 g ai/ha, scale 0 to 100 (0 no effect, 100 complete control)
Procedure, shortened: as §2

redroot pigweed = assay: Test A pre-/postemergence herbicide test; format: in vivo, Amaranthus retroflexus
Procedure, shortened: as §3

[7] = tested on: small flower umbrella sedge; assay: Test B flooded paddy test; format: in vivo, Cyperus difformis; conditions: 1000 g ai/ha, scale 0 to 100 (0 no effect, 100 complete control)
Procedure, shortened: as §2

large crabgrass [8] = assay: Test A pre-/postemergence herbicide test; format: in vivo, Digitaria sanguinalis
Procedure, shortened: as §3

cocklebur = assay: Test B pre-/postemergence herbicide test; format: in vivo, Xanthium strumarium; conditions: for Cocklebur plant response rating: postemergence
Procedure, shortened: as §1

giant foxtail [9] = assay: Test B pre-/postemergence herbicide test; format: in vivo, Setaria faberi; conditions: for Foxtail, Giant plant response rating: postemergence
Procedure, shortened: as §1

morningglory [10] = assay: Test B pre-/postemergence herbicide test; format: in vivo, Ipomoea coccinea; conditions: for Morningglory plant response rating: postemergence
Procedure, shortened: as §1

barnyardgrass [11] = assay: Test A pre-/postemergence herbicide test; format: in vivo, Echinochloa crus-galli
Procedure, shortened: as §3

blackgrass = assay: Test B postemergence herbicide test; format: in vivo, Alopecurus myosuroides; conditions: postemergence
Procedure, shortened: as §2

large crabgrass [12] = assay: Test B pre-/postemergence herbicide test; format: in vivo, Digitaria sanguinalis; conditions: for Crabgrass, Large plant response rating: postemergence
Procedure, shortened: as §1

[13] = 125 g ai/ha, 0 is no effect, 100 is complete control, preemergence
[14] = 125 g ai/ha, visual rating, scale 0 (no effect) to 100 (complete control)
[15] = 500 g ai/ha, visual rating, 0 = no effect, 100 = complete control, preemergence
[16] = 500 g ai/ha, scale 0 to 100, 0 is no effect, 100 is complete control
[17] = Postemergence, 500 g ai/ha, 0 to 100 scale, 0 no effect, 100 complete control
[18] = Postemergence, 2000 g ai/ha, 0 to 100 scale, 0 no effect, 100 complete control
[19] = Preemergence, 2000 g ai/ha, visual rating, 0 to 100 scale (0 no effect, 100 complete control)
[20] = preemergence, 500 g ai/ha, visual injury, 0 to 100 scale (0 no effect, 100 complete control)

Structure (SMILES): CCc1nn(C2CCCC2)nc1C(=O)Nc1cccc(C(=O)N2CC=CC2)c1 [Compound 354]
- Plant response rating (0 to 100 scale), Pigweed (pigweed; [13]): 0
- Pigweed plant response rating (pigweed; [14]): 40
- Plant response rating, Pigweed (pigweed; [15]): 90
- Pigweed plant response rating (pigweed; [16]): 50
- Plant response rating (0 to 100 scale), Velvetleaf (velvetleaf [1]; 125 g ai/ha, 0 is no effect, preemergence): 0
- Velvetleaf plant response rating (velvetleaf [1]; postemergence, 500 g ai/ha, scale 0 to 100, 0 is no effect): 10
- Wheat plant response rating (wheat; [14]): 0
- Wheat plant response rating (wheat; [16]): 20
- Lambsquarters plant response rating (lambsquarters; [14]): 10
- Plant response rating, Lambsquarters (lambsquarters; [15]): 100
- Lambsquarters plant response rating (lambsquarters; [16]): 50
- Velvetleaf plant response rating (velvetleaf [2]; [17]): 50
- Plant response rating, Velvetleaf (velvetleaf [2]; [18]): 70
- Velvetleaf plant response rating (velvetleaf [2]; [19]): 45
- Velvetleaf plant response rating (velvetleaf [2]; [20]): 5
- Ducksalad plant response rating (ducksalad): 50
- Plant response rating (0 to 100 scale), Barnyardgrass (barnyardgrass [3]; [13]): 0
- Barnyardgrass plant response rating (barnyardgrass [3]; [14]): 0
- Plant response rating, Barnyardgrass (barnyardgrass [3]; [15]): 60
- Barnyardgrass plant response rating (barnyardgrass [3]; [16]): 0
- Morningglory plant response rating (morningglory [4]; [17]): 20
- Plant response rating, Morningglory (morningglory [4]; [18]): 85
- Morningglory plant response rating (morningglory [4]; [19]): 20
- Morningglory plant response rating (morningglory [4]; [20]): 15
- Oat, Wild plant response rating (wild oat; [14]): 0
- Oat, Wild plant response rating (wild oat; [16]): 20
- Foxtail, Giant plant response rating (giant foxtail [5]; [17]): 10
- Plant response rating, Foxtail, Giant (giant foxtail [5]; [18]): 50
- Foxtail, Giant plant response rating (giant foxtail [5]; [19]): 80
- Foxtail, Giant plant response rating (giant foxtail [5]; [20]): 15
- Barnyardgrass plant response rating (barnyardgrass [6]): 40
- Plant response rating (0 to 100 scale), Corn (corn; [13]): 20
- Corn plant response rating (corn; [14]): 0
- Plant response rating, Corn (corn; [15]): 20
- Corn plant response rating (corn; [16]): 0
- Plant response rating (0 to 100 scale), Surinam Grass (Surinam grass; [13]): 0
- Surinam Grass plant response rating (Surinam grass; [14]): 0
- Plant response rating, Surinam Grass (Surinam grass; [15]): 20
- Surinam Grass plant response rating (Surinam grass; [16]): 20
- Rice plant response rating (rice): 50
- Pigweed plant response rating (redroot pigweed; [17]): 70
- Plant response rating, Pigweed (redroot pigweed; [18]): 80
- Pigweed plant response rating (redroot pigweed; [19]): 70
- Pigweed plant response rating (redroot pigweed; [20]): 60
- Sedge, Umbrella plant response rating [7]: 50
- Crabgrass, Large plant response rating (large crabgrass [8]; [17]): 10
- Plant response rating, Crabgrass, Large (large crabgrass [8]; [18]): 20
- Crabgrass, Large plant response rating (large crabgrass [8]; [19]): 20
- Crabgrass, Large plant response rating (large crabgrass [8]; [20]): 10
- Plant response rating (0 to 100 scale), Cocklebur (cocklebur; [13]): 0
- Cocklebur plant response rating (cocklebur; [14]): 10
- Plant response rating, Cocklebur (cocklebur; [15]): 0
- Cocklebur plant response rating (cocklebur; [16]): 20
- Plant response rating (0 to 100 scale), Foxtail, Giant (giant foxtail [9]; [13]): 10
- Foxtail, Giant plant response rating (giant foxtail [9]; [14]): 10
- Plant response rating, Foxtail, Giant (giant foxtail [9]; [15]): 70
- Foxtail, Giant plant response rating (giant foxtail [9]; [16]): 20
- Plant response rating (0 to 100 scale), Morningglory (morningglory [10]; [13]): 0
- Morningglory plant response rating (morningglory [10]; [14]): 30
- Plant response rating, Morningglory (morningglory [10]; [15]): 0
- Morningglory plant response rating (morningglory [10]; [16]): 60
- Barnyardgrass plant response rating (barnyardgrass [11]; [17]): 20
- Plant response rating, Barnyardgrass (barnyardgrass [11]; [18]): 70
- Barnyardgrass plant response rating (barnyardgrass [11]; [19]): 55
- Barnyardgrass plant response rating (barnyardgrass [11]; [20]): 0
- Blackgrass plant response rating (blackgrass; [14]): 10
- Blackgrass plant response rating (blackgrass; [16]): 20
- Plant response rating (0 to 100 scale), Crabgrass, Large (large crabgrass [12]; [13]): 20
- Crabgrass, Large plant response rating (large crabgrass [12]; [14]): 0
- Plant response rating, Crabgrass, Large (large crabgrass [12]; [15]): 80
- Crabgrass, Large plant response rating (large crabgrass [12]; [16]): 10
